Data published in PubChem BioAssay AID1918999 (Molecular Pharmacology Branch, DTP, NCI, 2023).
“And” between values parts separate entries of the source, which are not always exact repeats. Equal entries are not always repeated.

Tested on: 556581-035-R-J1-PDC complex spheroid growth
Assay: Anticancer human tumor 556581-035-R-J1-PDC patient-derived ovarian carcinoma cell line growth inhibition [AhR]
Settings: for viability, T/C: stronger effect = lower value; active means viability on the fitted dose curve at most 10% of control; inactive means the rest
Method in brief: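 Agents were dosed in half-log steps down from roughly clinical Cmax, or from 10 microM where Cmax was unknown, alone and with AhR antagonists. Read-out: percent test/control growth of tumor spheroids containing HUVEC and MSC stromal cells.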

[1] = curve of first compound, second compound 0.1 µM
[2] = curve of first compound, second compound 0.316 µM
[3] = curve of first compound, second compound 1 µM
[4] = curve of first compound, second compound 3.16 µM
[5] = curve of first compound, second compound 10 µM
[6] = second compound 0.1 µM, first compound 0.0316 µM
[7] = second compound 0.1 µM, first compound 0.1 µM
[8] = second compound 0.1 µM, first compound 0.316 µM
[9] = second compound 0.1 µM, first compound 1 µM
[10] = second compound 0.1 µM, first compound 3.16 µM
[11] = second compound 0.1 µM, first compound 10 µM
[12] = second compound 0.316 µM, first compound 0.0316 µM
[13] = second compound 0.316 µM, first compound 0.1 µM
[14] = second compound 0.316 µM, first compound 0.316 µM
[15] = second compound 0.316 µM, first compound 1 µM
[16] = second compound 0.316 µM, first compound 3.16 µM
[17] = second compound 0.316 µM, first compound 10 µM
[18] = second compound 1 µM, first compound 0.0316 µM
[19] = second compound 1 µM, first compound 0.1 µM
[20] = second compound 1 µM, first compound 0.316 µM
[21] = second compound 1 µM, first compound 1 µM
[22] = second compound 1 µM, first compound 3.16 µM
[23] = second compound 1 µM, first compound 10 µM
[24] = second compound 3.16 µM, first compound 0.0316 µM
[25] = second compound 3.16 µM, first compound 0.1 µM
[26] = second compound 3.16 µM, first compound 0.316 µM
[27] = second compound 3.16 µM, first compound 1 µM
[28] = second compound 3.16 µM, first compound 3.16 µM
[29] = second compound 3.16 µM, first compound 10 µM
[30] = second compound 10 µM, first compound 0.0316 µM
[31] = second compound 10 µM, first compound 0.1 µM
[32] = second compound 10 µM, first compound 0.316 µM
[33] = second compound 10 µM, first compound 1 µM
[34] = second compound 10 µM, first compound 3.16 µM
[35] = second compound 10 µM, first compound 10 µM
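Wherever viability, T/C is given: compound exposure lasted 7 days; 100% = DMSO vehicle control growth.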

COc1cccc2c1C(=O)c1c(O)c3c(c(O)c1C2=O)CC(O)(C(=O)CO)CC3OC1CC(N)C(O)C(C)O1 (stereo not given) + CC(CO)NC(=O)c1cc(-c2ccc(Cl)cc2)nn(-c2cnn(C)c2)c1=O
375 nM: IC50 [4]
393 nM: IC50 [1]
361 nM: IC50 [5]
396 nM: IC50 [2]
445 nM: IC50 [3]
active: viability, T/C [10] 3.94% | viability, T/C [11] 3.84% | viability, T/C [16] 4.59% | viability, T/C [17] 3.12% | viability, T/C [22] 3.33% | viability, T/C [23] 3.66% | viability, T/C [28] 4.03% | viability, T/C [29] 3.23% | viability, T/C [33] 3.3% | viability, T/C [34] 1.46% | viability, T/C [35] 3.96%
inactive: viability, T/C [6] 89.7% | viability, T/C [7] 80.7% | viability, T/C [8] 58.7% | viability, T/C [9] 16.1% | viability, T/C [12] 83.9% | viability, T/C [13] 79.3% | viability, T/C [14] 58.1% | viability, T/C [15] 17.5% | viability, T/C [18] 85% | viability, T/C [19] 87.3% | viability, T/C [20] 64.8% | viability, T/C [21] 14.5% | viability, T/C [24] 75.8% | viability, T/C [25] 79.4% | viability, T/C [26] 55.9% | viability, T/C [27] 13.1% | viability, T/C [30] 88.9% | viability, T/C [31] 87% | viability, T/C [32] 56%

NS(=O)(=O)OCC1CC(n2ccc3c(NC4CCc5ccccc54)ncnc32)CC1O (stereo not given) + CC(CO)NC(=O)c1cc(-c2ccc(Cl)cc2)nn(-c2cnn(C)c2)c1=O
> 10000 nM: IC50 [1] | IC50 [2] | IC50 [3] | IC50 [4] | IC50 [5]
inactive: viability, T/C [6] 98.2% | viability, T/C [7] 108% | viability, T/C [8] 112% | viability, T/C [9] 107% | viability, T/C [10] 107% | viability, T/C [11] 86.9% | viability, T/C [12] 107% | viability, T/C [13] 121% | viability, T/C [14] 97.1% | viability, T/C [15] 104% | viability, T/C [16] 109% | viability, T/C [17] 78.9% | viability, T/C [18] 106% | viability, T/C [19] 118% | viability, T/C [20] 104% | viability, T/C [21] 111% | viability, T/C [22] 88.3% | viability, T/C [23] 86.7% | viability, T/C [24] 101% | viability, T/C [25] 111% | viability, T/C [26] 103% | viability, T/C [27] 106% | viability, T/C [28] 99.8% | viability, T/C [29] 89.5% | viability, T/C [30] 95.8% | viability, T/C [31] 109% | viability, T/C [32] 115% | viability, T/C [33] 109% | viability, T/C [34] 121% | viability, T/C [35] 96.7%

CC1COCCN1c1cc(C2(S(C)(=N)=O)CC2)nc(-c2ccnc3[nH]ccc23)n1 (stereo not given)
inactive: viability, T/C (compound 0.0316 µM) 104% and 101% and 99.6% | viability, T/C (compound 0.1 µM) 103% and 105% and 107% | viability, T/C (compound 0.316 µM) 96.5% and 102% and 92.8% | viability, T/C (compound 1 µM) 86.3% and 92.2% and 88.4% | viability, T/C (compound 3.16 µM) 84.8% (2×) and 74.1% | viability, T/C (compound 10 µM) 59.5% and 60.3% and 57.7%
> 10000 nM: IC50 (curve of compound)

CC1COCCN1c1cc(-c2ccnn2C)c2ccnc(-c3ccn[nH]3)c2n1 (stereo not given) + Cc1cncc(-c2nc(NCCc3c[nH]c4ccccc34)c3ncn(C(C)C)c3n2)c1
inactive: viability, T/C (second compound 0.1 µM, first compound 0.00316 µM) 99.4% | viability, T/C (second compound 0.1 µM, first compound 0.01 µM) 96.1% | viability, T/C [6] 89.8% | viability, T/C [7] 82.2% | viability, T/C [8] 62.8% | viability, T/C [9] 40.5% | viability, T/C (second compound 0.316 µM, first compound 0.00316 µM) 98.2% | viability, T/C (second compound 0.316 µM, first compound 0.01 µM) 104% | viability, T/C [12] 93.2% | viability, T/C [13] 83% | viability, T/C [14] 55.6% | viability, T/C [15] 41.9% | viability, T/C (second compound 1 µM, first compound 0.00316 µM) 100% | viability, T/C (second compound 1 µM, first compound 0.01 µM) 102% | viability, T/C [18] 101% | viability, T/C [19] 83.8% | viability, T/C [20] 57.4% | viability, T/C [21] 48% | viability, T/C (second compound 3.16 µM, first compound 0.00316 µM) 101% | viability, T/C (second compound 3.16 µM, first compound 0.01 µM) 95.1% | viability, T/C [24] 88.6% | viability, T/C [25] 75.7% | viability, T/C [26] 62.4% | viability, T/C [27] 46.2% | viability, T/C (second compound 10 µM, first compound 0.00316 µM) 77.6% | viability, T/C (second compound 10 µM, first compound 0.01 µM) 71.9% | viability, T/C [30] 71.4% | viability, T/C [31] 64.3% | viability, T/C [32] 57.7% | viability, T/C [33] 49%
518 nM: IC50 [2]
796 nM: IC50 [3]
760 nM: IC50 [4]
621 nM: IC50 [1]
877 nM: IC50 [5]

Cc1cncc(-c2nc(NCCc3c[nH]c4ccccc34)c3ncn(C(C)C)c3n2)c1
inactive: viability, T/C (compound 0.316 µM) 103% [middle of 20 runs] | viability, T/C (compound 10 µM) 83.6% [middle of 20 runs]
> 10000 nM: IC50 (compound alone, run of 06/06/2022)

Nc1ncn(C2CC(O)C(CO)S2)c(=O)n1 (stereo not given) + Cc1cncc(-c2nc(NCCc3c[nH]c4ccccc34)c3ncn(C(C)C)c3n2)c1
inactive: viability, T/C (second compound 0.1 µM, first compound 0.000949 µM) 99.3% | viability, T/C (second compound 0.1 µM, first compound 0.003 µM) 102% | viability, T/C (second compound 0.1 µM, first compound 0.00949 µM) 88.9% | viability, T/C (second compound 0.1 µM, first compound 0.03 µM) 93.8% | viability, T/C (second compound 0.1 µM, first compound 0.0949 µM) 82% | viability, T/C (second compound 0.1 µM, first compound 0.3 µM) 67.3% | viability, T/C (second compound 0.316 µM, first compound 0.000949 µM) 113% | viability, T/C (second compound 0.316 µM, first compound 0.003 µM) 109% | viability, T/C (second compound 0.316 µM, first compound 0.00949 µM) 111% | viability, T/C (second compound 0.316 µM, first compound 0.03 µM) 93.2% | viability, T/C (second compound 0.316 µM, first compound 0.0949 µM) 81% | viability, T/C (second compound 0.316 µM, first compound 0.3 µM) 68% | viability, T/C (second compound 1 µM, first compound 0.000949 µM) 116% | viability, T/C (second compound 1 µM, first compound 0.003 µM) 109% | viability, T/C (second compound 1 µM, first compound 0.00949 µM) 99.5% | viability, T/C (second compound 1 µM, first compound 0.03 µM) 106% | viability, T/C (second compound 1 µM, first compound 0.0949 µM) 85.7% | viability, T/C (second compound 1 µM, first compound 0.3 µM) 80.4% | viability, T/C (second compound 3.16 µM, first compound 0.000949 µM) 87.7% | viability, T/C (second compound 3.16 µM, first compound 0.003 µM) 84.8% | viability, T/C (second compound 3.16 µM, first compound 0.00949 µM) 95.8% | viability, T/C (second compound 3.16 µM, first compound 0.03 µM) 94.3% | viability, T/C (second compound 3.16 µM, first compound 0.0949 µM) 79.5% | viability, T/C (second compound 3.16 µM, first compound 0.3 µM) 72.9% | viability, T/C (second compound 10 µM, first compound 0.000949 µM) 84.7% | viability, T/C (second compound 10 µM, first compound 0.003 µM) 86.7% | viability, T/C (second compound 10 µM, first compound 0.00949 µM) 91.6% | viability, T/C (second compound 10 µM, first compound 0.03 µM) 87.3% | viability, T/C (second compound 10 µM, first compound 0.0949 µM) 79.4% | viability, T/C (second compound 10 µM, first compound 0.3 µM) 72.6%
> 300 nM: IC50 [1] | IC50 [2] | IC50 [3] | IC50 [4] | IC50 [5]
